Test results reported in patent US8263585B2, “Organic compounds” (Novartis AG, priority 2007, dated 2012).

Target: T1, human PI 3-Kγ (Homo sapiens, UniProt P48736)
T1 construct: Residues 38-1102 of human PI 3-Kγ are subcloned; made in house; host or cells: Sf9 (Spodoptera frugiperda) insect cells, baculovirus
Test: in vitro kinase assay (Scintillation Proximity Assay): transfer of terminal phosphate of ATP to phosphatidylinositol
Assay type: biochemical
Conditions: recombinant GST-p110γ, 12.5 μM ATP assay mix, 60 minutes room temperature
Excerpt: Baculovirus expressing different fragments of human PI 3-Kγ fused to glutathione S-transferase (GST) have been previously described by Stoyanova, S., Bulgarelli-Leva, G., Kirsch, C., Hanck, T., Klinger, R., Wetzker, R., Wymann, M. P. (1997) Lipid- and protein kinase activities of G protein-coupled PI 3-kinase g: structure-activity analysis and interactions with wortmannin. Biochem. J., 324:489. Residues 38-1102 of human PI 3-Kγ are subcloned into the BamH1 and EcoR1 sites of the transfer vector pAcG2T (Pharmingen) to create a GST-PI 3-Kγ lacking the first 37 residues of PI 3-Kγ. To express the recombinant protein, Sf9 (Spodoptera frugiperda 9) insect cells are routinely maintained at densities between 3×10^5 and 3×10^6 cells/ml in serum containing TNMFH medium (Sigma). Sf9 cells, at a density of 2×10^6 are infected with human […] baculovirus at a multiplicity of infection (m.o.i.) of 1 for 72 hours. The infected cells are harvested by centrifugation at 1400 g for 4 minutes at 4° C. and the cell pellets are frozen at −80° C. Both Sf9 and Sf21 cells work equally well. Sf9 cells (1×10^9) are resuspended in 100 ml cold (4° C.) lysis buffer (50 mM Tris-HCl pH 7.5, 1% Triton X-100, 150 mM NaCl, 1 mM NaF, 2 mM DTT and protease inhibitors. Cells are incubated on ice for 30 minutes then centrifuged at 15000 g for 20 minutes at 4° C. Purification of the supernatant sample is carried out at 4° C. by affinity chromatography using SEPHAROSE™ agarose gel beads coupled to glutathione (from Amersham Pharmacia Biotech). A cell lysate/GST resin ratio of 50:1 is used. The GST resin is firstly pre-rinsed to remove ethanol preservative and then equilibrated with lysis buffer. Cell lysate (supernatant) is added (usually as 50 ml lysate to 1 ml GST resin in 50 ml tubes) and gently rotated on a mixer at 4° C. for 2-3 hours. The unbound flow through sample is collected by centrifugation at 1000 g for 5 minutes at 4° C. using a DENLEY™ centrifuge. The 1 ml GST resin containing bound material is transferred to a 15 ml FALCON™ centrifuge tube for subsequent washing and elution steps. Firstly a series of 3 cycles of washings (mixing by gentle inversion) is performed with 15 ml ice cold wash Buffer A (50 mM Tris-HCl pH 7.5, 1% Triton X-100, 2 mM DTT) interspersed with centrifugation at 1000 g for 5 minutes at 4° C. A final single wash step is performed with 15 ml ice cold wash Buffer B (50 mM Tris-HCl pH 7.5, 2 mM DTT) and then centrifuged at 1050 g for 5 minutes at 4° C. The washed GST resin is finally eluted with 4 cycles of 1 ml ice cold elution buffer (50 mM Tris-HCl pH 7.5, 10 mM reduced glutathione, 2 mM DTT, 150 mM NaCl, 1 mM NaF, 50% ethylene glycol and protease inhibitors) interspersed with centrifugation at 1000 g for 5 minutes at 4° C. Samples are aliquoted and stored at −20° C.
An in vitro kinase assay was established that measures the transfer of the terminal phosphate of adenosine triphosphate to phosphatidylinositol. The kinase reaction is performed in a white 96 well microtitre plate as a Scintillation Proximity Assay. Each well contains 10 μl test compound in 5% dimethylsulphoxide and 20 μl assay mix (40 mM Tris, 200 mM NaCl, 2 mM ethyleneglycol-aminoethyl-tetraacetic acid (EGTA), 15 μg/ml phosphatidylinositol, 12.5 μM adenosine triphosphate (ATP), 25 mM MgCl2, 0.1 μCi [^33P]ATP). The reaction is started by the addition of 20 μl of enzyme mix (40 mM Tris, 200 mM NaCl, 2 mM EGTA containing recombinant GST-p110γ). […]

T1 sequence (P48736 38-1102): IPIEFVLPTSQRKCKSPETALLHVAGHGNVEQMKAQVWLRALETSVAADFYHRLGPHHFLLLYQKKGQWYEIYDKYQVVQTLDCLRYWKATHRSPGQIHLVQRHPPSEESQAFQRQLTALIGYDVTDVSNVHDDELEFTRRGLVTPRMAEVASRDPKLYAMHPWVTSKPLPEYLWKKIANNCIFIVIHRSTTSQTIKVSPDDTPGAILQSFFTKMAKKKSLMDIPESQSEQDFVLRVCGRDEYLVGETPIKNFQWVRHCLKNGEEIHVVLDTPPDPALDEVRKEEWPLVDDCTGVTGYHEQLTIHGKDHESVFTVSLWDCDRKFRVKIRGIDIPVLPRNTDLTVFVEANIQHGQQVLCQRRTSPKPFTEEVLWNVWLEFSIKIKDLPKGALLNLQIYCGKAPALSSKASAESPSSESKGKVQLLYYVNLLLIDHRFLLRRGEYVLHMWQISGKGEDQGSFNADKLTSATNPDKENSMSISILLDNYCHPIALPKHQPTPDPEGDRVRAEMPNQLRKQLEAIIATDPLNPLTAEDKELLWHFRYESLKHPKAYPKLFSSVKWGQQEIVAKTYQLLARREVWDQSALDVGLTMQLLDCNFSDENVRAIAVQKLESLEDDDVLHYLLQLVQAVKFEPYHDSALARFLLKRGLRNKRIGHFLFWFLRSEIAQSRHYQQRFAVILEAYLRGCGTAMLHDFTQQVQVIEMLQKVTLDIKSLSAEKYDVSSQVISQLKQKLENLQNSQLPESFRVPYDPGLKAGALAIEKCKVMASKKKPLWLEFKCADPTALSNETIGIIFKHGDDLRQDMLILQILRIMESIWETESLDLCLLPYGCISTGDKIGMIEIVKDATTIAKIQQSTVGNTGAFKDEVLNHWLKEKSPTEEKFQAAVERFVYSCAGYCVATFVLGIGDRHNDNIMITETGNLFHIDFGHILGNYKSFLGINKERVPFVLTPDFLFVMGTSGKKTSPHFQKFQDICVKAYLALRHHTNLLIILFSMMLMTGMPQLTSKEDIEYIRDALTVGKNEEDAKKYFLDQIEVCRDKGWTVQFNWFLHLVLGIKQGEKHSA

Structure (SMILES) | IC50
Cc1nc(N)ncc1-c1ccc(Cl)c(S(=O)(=O)N(C)C)c1 [Example 1-15, 5-(2-Amino-4-methyl-pyrimidin-5-yl)-2-chloro-N2N-dimethyl-benzenesulfonamide] | 239 nM
Cc1nc(N)ncc1-c1ccc(Cl)c(NS(=O)(=O)c2ccccc2)c1 [Example 1-50, N-[5-(2-Amino-4-methyl-pyrimidin-5-yl)-2-chloro-phenyl]-benzenesulfonamide] | 50 nM
Cc1nc(N)ncc1-c1ccc(Cl)c(S(=O)(=O)N2CC(O)C2)c1 [Example 1-30, 1-[5-(2-Amino-4-methyl-pyrimidin-5-yl)-2-chloro-benzenesulfonyl]-azetidin-3-ol] | 135 nM
Cc1nc(N)ncc1-c1ccc(Cl)c(S(=O)(=O)Nc2ccccc2)c1 [Example 1-1, 5-(2-Amino-4-methyl-pyrimidin-5-yl)-2-chloro-N-phenyl-benzenesulfonamide] | 4 nM

Other lines, results leading:

IC50 | Structure (SMILES)
219 nM | Cc1nc(N)ncc1-c1ccc(Cl)c(S(=O)(=O)NC2CC2)c1 [Example 3-1, 5-(2-Amino-4-methyl-pyrimidin-5-yl)-2-chloro-N-cyclopropyl-benzenesulfonamide]
305 nM | Cc1nc(N)ncc1-c1ccc(Cl)c(S(=O)(=O)N[C@H]2CC[C@@H](NC(=O)OC(C)(C)C)CC2)c1 [Example 3-17, cis-{4-[5-(2-Amino-4-methyl-pyrimidin-5-yl)-2-chloro-benzenesulfonylamino]-cyclohexyl}-carbamic acid tert-butyl ester]
223 nM | Cc1nc(N)ncc1-c1ccnc(C(C)(C)C)n1 [Example 2-1, 2-tert-Butyl-4′-methyl-[4,5′]bipyrimidinyl-2′-ylamine]
108 nM | Cc1nc(N)ncc1-c1ccc(C(F)(F)F)c(S(=O)(=O)N[C@@H]2CCC[C@@H]2O)c1 [Example 3-53, 5-(2-Amino-4-methyl-pyrimidin-5-yl)-N-((1R,2S)-2-hydroxy-cyclopentyl)-2-trifluoromethyl-benzenesulfonamide]
16 nM | Cc1nc(N)ncc1-c1ccc(Cl)c(NS(=O)(=O)c2cccc(Cl)c2)c1 [Example 3-35, N-[5-(2-Amino-4-methyl-pyrimidin-5-yl)-2-chloro-phenyl]-3-chloro-benzene sulfonamide]
